Results reported in US20230117034A1, “PYRAZOLOTRIAZINES” (Bayer Aktiengesellschaft, priority 2019, published 2023).

System: BRCA1 mRNA expression in CAL-120 cells
Assay: qRT-PCR assay: BRCA1 mRNA expression in CAL-120
Assay type: cell-based
Details: Homo sapiens; Inhibition of BRCA1 mRNA expression in CAL-120 cells; median; read-out: RTqPCR-CAL-120, IC50, BRCA1 (median)
Method: 3. qRT-PCR Assay: BRCA, ATR, MCL1 in MDA-MB-231, CAL-120
Tissue cultured human MDA-MB-231 human breast cancer cells were plated in 500 microL per well at 200,000 cells/well in a 24 well microtiter plate. After 24 h, the cells were exposed continuously for 24 h to test substances (substances were added with Tecan HP 0300 Dispenser). RNA was prepared using Qiagen RNeasy MiniKit (#74106), RNA was quantified using a NanoDrop Equipment, and 600 nano gamms of RNA was coverted to cDNA using a SuperScript VILO kit (Thermofisher #11755050) followed by qPCR amplification. BRCA1 and ATR gene expression was measured by RT-qPCR and normalised to GAPDH housekeeping gene expression. qPCR primer sets have been purchased from Thermo Fisher Scientific/Applied Biosystems: BRCA1, #Hs 01556193; ATR, #Hs 00992123; GAPDH, #Hs 03929097.

- IC50: 7.06 nM
SMILES: Brc1cnn2c(NCc3nc4ccccc4[nH]3)nc(N3CCOCC3)nc12 [Example 4, N-[(1H-benzimidazol-2-yl)methyl]-8-bromo-2-(morpholin-4-yl)pyrazolo[1,5-a][1,3,5]triazin-4-amine]
